Results taken from article PMC10227015, “From a drug repositioning to a structure-based drug design approach to tackle acute lymphoblastic leukemia” (Nature Communications, 2023).

Experiments:
Assay in all cases: KINOMEscan competition binding
Conditions in all cases: OR0642 1 µM; read-out: %Control
MARK3 = molecular target: T1, MARK3 (Homo sapiens, UniProt P27448)
T1 construct: purchased Eurofins DiscoverX (KINOMEscan scanEDGE 97)
Description: (§1) Kinome profiling was provided by Eurofins DiscoverX Corporation. Determination of the % control activity for 97 kinases was obtained through an active site-directed competition binding assay that quantitatively measure interactions between compound and kinases. OR0642 was used at 1 μM.
(§2) Supplementary Table 3. KINOMEscan™ Profiling of OR0642. Competition binding assay to
(§3) quantitatively measure interactions between OR0642 (1 µM) and 97 human kinases and disease
(§4) relevant mutant variants.

AURKA = molecular target: T2, AURKA (Homo sapiens, UniProt O14965)
T2 construct: purchased Eurofins DiscoverX (KINOMEscan scanEDGE 97)
Description: as §1, §2, §3, §4

PAK1 = molecular target: T3, PAK1 (Homo sapiens, UniProt Q13153)
T3 construct: purchased Eurofins DiscoverX (KINOMEscan scanEDGE 97)
Description: as §1, §2, §3, §4

DYRK1B = molecular target: T4, DYRK1B (Homo sapiens, UniProt Q9Y463)
T4 construct: purchased Eurofins DiscoverX (KINOMEscan scanEDGE 97)
Description: as §1, §2, §3, §4

JNK1 = molecular target: T5, JNK1 (Homo sapiens, UniProt P45983)
T5 construct: purchased Eurofins DiscoverX (KINOMEscan scanEDGE 97)
Description: as §1, §2, §3, §4

DCAMKL1 = molecular target: T6, DCAMKL1 (Homo sapiens, UniProt O15075)
T6 construct: purchased Eurofins DiscoverX (KINOMEscan scanEDGE 97)
Description: as §1, §2, §3, §4

CDK11 = molecular target: T7, CDK11 (Homo sapiens, UniProt Q9BWU1)
T7 construct: purchased Eurofins DiscoverX (KINOMEscan scanEDGE 97)
Description: as §1, §2, §3, §4

[1] = molecular target: T8, ABL1(T315I)-phosphorylated (Homo sapiens, UniProt P00519, T315I)
T8 construct: purchased Eurofins DiscoverX (KINOMEscan scanEDGE 97)
Description: as §1, §2, §3, §4

PDGFRA = molecular target: T9, PDGFRA (Homo sapiens, UniProt P16234)
T9 construct: purchased Eurofins DiscoverX (KINOMEscan scanEDGE 97)
Description: as §1, §2, §3, §4

MEK1 = molecular target: T10, MEK1 (Homo sapiens, UniProt Q02750)
T10 construct: purchased Eurofins DiscoverX (KINOMEscan scanEDGE 97)
Description: as §1, §2, §3, §4

BRAF(V600E) = molecular target: T11, BRAF(V600E) (Homo sapiens, UniProt P15056, V600E)
T11 construct: purchased Eurofins DiscoverX (KINOMEscan scanEDGE 97)
Description: as §1, §2, §3, §4

AURKB = molecular target: T12, AURKB (Homo sapiens, UniProt Q96GD4)
T12 construct: purchased Eurofins DiscoverX (KINOMEscan scanEDGE 97)
Description: as §1, §2, §3, §4

KIT(V559D,T670I) = molecular target: T13, KIT(V559D,T670I) (Homo sapiens, UniProt P10721, T670I/V559D)
T13 construct: purchased Eurofins DiscoverX (KINOMEscan scanEDGE 97)
Description: as §1, §2, §3, §4

IGF1R = molecular target: T14, IGF1R (Homo sapiens, UniProt P08069)
T14 construct: purchased Eurofins DiscoverX (KINOMEscan scanEDGE 97)
Description: as §1, §2, §3, §4

CSNK1D = molecular target: T15, CSNK1D (Homo sapiens, UniProt P48730)
T15 construct: purchased Eurofins DiscoverX (KINOMEscan scanEDGE 97)
Description: as §1, §2, §3, §4

CSF1R = molecular target: T16, CSF1R (Homo sapiens, UniProt P07333)
T16 construct: purchased Eurofins DiscoverX (KINOMEscan scanEDGE 97)
Description: as §1, §2, §3, §4

PDPK1 = molecular target: T17, PDPK1 (Homo sapiens, UniProt O15530)
T17 construct: purchased Eurofins DiscoverX (KINOMEscan scanEDGE 97)
Description: as §1, §2, §3, §4

IKK-beta = molecular target: T18, IKK-beta (Homo sapiens, UniProt O14920)
T18 construct: purchased Eurofins DiscoverX (KINOMEscan scanEDGE 97)
Description: as §1, §2, §3, §4

MKNK1 = molecular target: T19, MKNK1 (Homo sapiens, UniProt Q9BUB5)
T19 construct: purchased Eurofins DiscoverX (KINOMEscan scanEDGE 97)
Description: as §1, §2, §3, §4

CHEK1 = molecular target: T20, CHEK1 (Homo sapiens, UniProt O14757)
T20 construct: purchased Eurofins DiscoverX (KINOMEscan scanEDGE 97)
Description: as §1, §2, §3, §4

MAP3K4 = molecular target: T21, MAP3K4 (Homo sapiens, UniProt Q9Y6R4)
T21 construct: purchased Eurofins DiscoverX (KINOMEscan scanEDGE 97)
Description: as §1, §2, §3, §4

FGFR3 = molecular target: T22, FGFR3 (Homo sapiens, UniProt P22607)
T22 construct: purchased Eurofins DiscoverX (KINOMEscan scanEDGE 97)
Description: as §1, §2, §3, §4

PAK4 = molecular target: T23, PAK4 (Homo sapiens, UniProt O96013)
T23 construct: purchased Eurofins DiscoverX (KINOMEscan scanEDGE 97)
Description: as §1, §2, §3, §4

GSK3B = molecular target: T24, GSK3B (Homo sapiens, UniProt P49841)
T24 construct: purchased Eurofins DiscoverX (KINOMEscan scanEDGE 97)
Description: as §1, §2, §3, §4

MKNK2 = molecular target: T25, MKNK2 (Homo sapiens, UniProt Q9HBH9)
T25 construct: purchased Eurofins DiscoverX (KINOMEscan scanEDGE 97)
Description: as §1, §2, §3, §4

KIT = molecular target: T26, KIT (Homo sapiens, UniProt P10721)
T26 construct: purchased Eurofins DiscoverX (KINOMEscan scanEDGE 97)
Description: as §1, §2, §3, §4

[2] = molecular target: T27, ABL1(E255K)-phosphorylated (Homo sapiens, UniProt P00519, E255K)
T27 construct: purchased Eurofins DiscoverX (KINOMEscan scanEDGE 97)
Description: as §1, §2, §3, §4

LKB1 = molecular target: T28, LKB1 (Homo sapiens, UniProt Q15831)
T28 construct: purchased Eurofins DiscoverX (KINOMEscan scanEDGE 97)
Description: as §1, §2, §3, §4

PDGFRB = molecular target: T29, PDGFRB (Homo sapiens, UniProt P09619)
T29 construct: purchased Eurofins DiscoverX (KINOMEscan scanEDGE 97)
Description: as §1, §2, §3, §4

CDK9 = molecular target: T30, CDK9 (Homo sapiens, UniProt P50750)
T30 construct: purchased Eurofins DiscoverX (KINOMEscan scanEDGE 97)
Description: as §1, §2, §3, §4

JNK2 = molecular target: T31, JNK2 (Homo sapiens, UniProt P45984)
T31 construct: purchased Eurofins DiscoverX (KINOMEscan scanEDGE 97)
Description: as §1, §2, §3, §4

FGFR2 = molecular target: T32, FGFR2 (Homo sapiens, UniProt P21802)
T32 construct: purchased Eurofins DiscoverX (KINOMEscan scanEDGE 97)
Description: as §1, §2, §3, §4

EGFR = molecular target: T33, EGFR (Homo sapiens, UniProt P00533)
T33 construct: purchased Eurofins DiscoverX (KINOMEscan scanEDGE 97)
Description: as §1, §2, §3, §4

IKK-alpha = molecular target: T34, IKK-alpha (Homo sapiens, UniProt O15111)
T34 construct: purchased Eurofins DiscoverX (KINOMEscan scanEDGE 97)
Description: as §1, §2, §3, §4

CSNK1G2 = molecular target: T35, CSNK1G2 (Homo sapiens, UniProt P78368)
T35 construct: purchased Eurofins DiscoverX (KINOMEscan scanEDGE 97)
Description: as §1, §2, §3, §4

PIK3C2B = molecular target: T36, PIK3C2B (Homo sapiens, UniProt O00750)
T36 construct: purchased Eurofins DiscoverX (KINOMEscan scanEDGE 97)
Description: as §1, §2, §3, §4

INSR = molecular target: T37, INSR (Homo sapiens, UniProt P06213)
T37 construct: purchased Eurofins DiscoverX (KINOMEscan scanEDGE 97)
Description: as §1, §2, §3, §4

ERBB4 = molecular target: T38, ERBB4 (Homo sapiens, UniProt Q15303)
T38 construct: purchased Eurofins DiscoverX (KINOMEscan scanEDGE 97)
Description: as §1, §2, §3, §4

CDK3 = molecular target: T39, CDK3 (Homo sapiens, UniProt Q00526)
T39 construct: purchased Eurofins DiscoverX (KINOMEscan scanEDGE 97)
Description: as §1, §2, §3, §4

PIM1 = molecular target: T40, PIM1 (Homo sapiens, UniProt P11309)
T40 construct: purchased Eurofins DiscoverX (KINOMEscan scanEDGE 97)
Description: as §1, §2, §3, §4

PIK3CG = molecular target: T41, PIK3CG (Homo sapiens, UniProt P48736)
T41 construct: purchased Eurofins DiscoverX (KINOMEscan scanEDGE 97)
Description: as §1, §2, §3, §4

PAK2 = molecular target: T42, PAK2 (Homo sapiens, UniProt Q13177)
T42 construct: purchased Eurofins DiscoverX (KINOMEscan scanEDGE 97)
Description: as §1, §2, §3, §4

CCCN(c1nc(-c2nc(N)cc(N)n2)cs1)c1cc(-c2ccc(S(=O)(=O)N3CCN(C)CC3)cc2C(F)(F)F)ccc1C [OR0642]
remaining binding at 1 µM (MARK3): 100% | remaining binding at 1 µM (AURKA): 96% | remaining binding at 1 µM (PAK1): 100% | remaining binding at 1 µM (DYRK1B): 100% | remaining binding at 1 µM (JNK1): 93% | remaining binding at 1 µM (DCAMKL1): 81% | remaining binding at 1 µM (CDK11): 100% | remaining binding at 1 µM [1]: 89% | remaining binding at 1 µM (PDGFRA): 97% | remaining binding at 1 µM (MEK1): 97% | remaining binding at 1 µM (BRAF(V600E)): 98% | remaining binding at 1 µM (AURKB): 85% | remaining binding at 1 µM (KIT(V559D,T670I)): 100% | remaining binding at 1 µM (IGF1R): 93% | remaining binding at 1 µM (CSNK1D): 100% | remaining binding at 1 µM (CSF1R): 100% | remaining binding at 1 µM (PDPK1): 98% | remaining binding at 1 µM (IKK-beta): 90% | remaining binding at 1 µM (MKNK1): 100% | remaining binding at 1 µM (CHEK1): 91% | remaining binding at 1 µM (MAP3K4): 97% | remaining binding at 1 µM (FGFR3): 79% | remaining binding at 1 µM (PAK4): 91% | remaining binding at 1 µM (GSK3B): 100% | remaining binding at 1 µM (MKNK2): 79% | remaining binding at 1 µM (KIT): 91% | remaining binding at 1 µM [2]: 96% | remaining binding at 1 µM (LKB1): 99% | remaining binding at 1 µM (PDGFRB): 100% | remaining binding at 1 µM (CDK9): 98% | remaining binding at 1 µM (JNK2): 84% | remaining binding at 1 µM (FGFR2): 89% | remaining binding at 1 µM (EGFR): 82% | remaining binding at 1 µM (IKK-alpha): 65% | remaining binding at 1 µM (CSNK1G2): 91% | remaining binding at 1 µM (PIK3C2B): 100% | remaining binding at 1 µM (INSR): 99% | remaining binding at 1 µM (ERBB4): 100% | remaining binding at 1 µM (CDK3): 97% | remaining binding at 1 µM (PIM1): 100% | remaining binding at 1 µM (PIK3CG): 100% | remaining binding at 1 µM (PAK2): 98%
